This note sets out measurements from patent publication US10807986B2, “Fused pyrimidine compound or salt thereof” (TAIHO PHARMACEUTICAL CO., LTD., priority 2016, dated 2020).

The data set can be described thus: Evaluation of stability in liver microsome. Conditions: mouse liver microsome 0.25 mg/mL, test compound 1 μM, 37° C., 30 minutes. (In general: Liver microsomes are vesicles of endoplasmic reticulum, rich in cytochrome P450 enzymes.)

For the compound `COCc1ccc(NC(=O)c2c(-c3ccc(O)cc3)n(C3(C)CC3)c3ncnc(N)c23)cc1` [Example 148, 4-amino-6-(4-hydroxyphenyl)-N-(4-(methoxymethyl)phenyl)-7-(1-methylcyclopropyl)-7H-pyrrolo[2,3-d]pyrimidine-5-carboxamide], the “Remaining (%)” value is recorded as 61%.

`COCc1ccc(NC(=O)c2c(-c3ccc(NC(C)=O)nc3)n(C3(C)CC3)c3ncnc(N)c23)cc1` [Example 147, 6-(6-acetamidopyridin-3-yl)-4-amino-N-(4-(methoxymethyl)phenyl)-7-(1-methylcyclopropyl)-7H-pyrrolo[2,3-d]pyrimidine-5-carboxamide]: the “Remaining (%)” value came out at 68%.

For the compound `COCc1ccc(NC(=O)c2c(C#Cc3ccccn3)n(C3(C)CC3)c3ncnc(N)c23)cc1` [Example 172, 4-amino-N-[4-(methoxymethyl)phenyl]-7-(1-methylcyclopropyl)-6-(pyridin-2-ylethynyl)-7H-pyrrolo[2,3-d]pyrimidine-5-carboxamide], the “Remaining (%)” value is given as 61%.

On to `COCc1ccc(NC(=O)c2c(OCC(C)C)n(C3(C)CC3)c3ncnc(N)c23)cc1` [Example 99, 4-amino-6-isobutoxy-N-(4-(methoxymethyl)phenyl)-7-(1-methylcyclopropyl)-7H-pyrrolo[2,3-d]pyrimidine-5-carboxamide], for which the “Remaining (%)” value stood at 51%.

For `COCCN(C)CC#Cc1c(C(=O)Nc2ccc(COC)cc2)c2c(N)ncnc2n1C1(C)CC1` [Example 197, 4-amino-6-(3-((2-methoxyethyl)(methyl)amino)prop-1-yn-1-yl)-N-(4-(methoxymethyl)phenyl)-7-(1-methylcyclopropyl)-7H-pyrrolo[2,3-d]pyrimidine-5-carboxamide], the “Remaining (%)” value is 52%.

As to `COCc1ccc(NC(=O)c2c(C#CC3CCOCC3)n(C3(C)CC3)c3ncnc(N)c23)cc1` [Example 87, 4-amino-N-[4-(methoxymethyl)phenyl]-7-(1-methylcyclopropyl)-6-((tetrahydro-2H-pyran-4-yl)ethynyl)-7H-pyrrolo[2,3-d]pyrimidine-5-carboxamide], the “Remaining (%)” value is reported as 63%.

Turning to `COCc1ccc(NC(=O)c2cn(C(C)(C)C)c3ncnc(N)c23)c(OC)c1` [Example 33, 4-amino-7-(tert-butyl)-N-(2-methoxy-4-(methoxymethyl)phenyl)-7H-pyrrolo[2,3-d]pyrimidine-5-carboxamide], the “Remaining (%)” value is reported as 57%.

On to `COCc1ccc(NC(=O)c2c(OCC(C)(C)OC)n(C3(C)CC3)c3ncnc(N)c23)cc1` [Example 137, 4-amino-6-(2-methoxy-2-methylpropoxy)-N-(4-(methoxymethyl)phenyl)-7-(1-methylcyclopropyl)-7H-pyrrolo[2,3-d]pyrimidine-5-carboxamide], for which the “Remaining (%)” value was 53%.

Regarding `COCc1ccc(NC(=O)c2cn(C3(C4CC4)CC3)c3ncnc(N)c23)cc1` [Example 49, 7-{[1,1-bi(cyclopropane)]-1-yl}-4-amino-N-(4-(methoxymethyl)phenyl)-7H-pyrrolo[2,3-d]pyrimidine-5-carboxamide], the “Remaining (%)” value worked out at 67%.

Consider `COCc1ccc(NC(=O)c2c(OCCN3CCCC3=O)n(C3(C)CC3)c3ncnc(N)c23)cc1` [Example 136, 4-amino-N-(4-(methoxymethyl)phenyl)-7-(1-methylcyclopropyl)-6-(2-(2-oxopyrrolidin-1-yl)ethoxy)-7H-pyrrolo[2,3-d]pyrimidine-5-carboxamide], for which the “Remaining (%)” value was found to be 78%.

On to `CCc1c(C(=O)Nc2ccc(COC)cc2)c2c(N)ncnc2n1C1(C)CC1` [Example 207, 4-amino-6-ethyl-N-(4-(methoxymethyl)phenyl)-7-(1-methylcyclopropyl)-7H-pyrrolo[2,3-d]pyrimidine-5-carboxamide], for which the “Remaining (%)” value was found to be 72%.

For the compound `COCc1ccc(NC(=O)c2c(-c3cn[nH]c3)n(C3(C)CC3)c3ncnc(N)c23)cc1` [Example 167, 4-amino-N-(4-(methoxymethyl)phenyl)-7-(1-methylcyclopropyl)-6-(1H-pyrazol-4-yl)-7H-pyrrolo[2,3-d]pyrimidine-5-carboxamide], the “Remaining (%)” value is listed as 80%.

On to `COCc1ccc(NC(=O)c2c(C)n(C(C)(C)C)c3ncnc(N)c23)cc1` [Example 60, 4-amino-7-(tert-butyl)-N-(4-(methoxymethyl)phenyl)-6-methyl-7H-pyrrolo[2,3-d]pyrimidine-5-carboxamide], for which the “Remaining (%)” value was 81%.

`C=Cc1c(C(=O)Nc2ccc(COC)cc2)c2c(N)ncnc2n1C1(C)CC1` [Example 65, 4-amino-N-(4-(methoxymethyl)phenyl)-7-(1-methylcyclopropyl)-6-vinyl-7H-pyrrolo[2,3-d]pyrimidine-5-carboxamide]: the “Remaining (%)” value amounted to 79%.

Consider `COCc1ccc(NC(=O)c2c(C#Cc3cnc4cccnn34)n(C3(C)CC3)c3ncnc(N)c23)cc1` [Example 91, 4-amino-6-(imidazo[1,2-b]pyridazin-3-ylethynyl)-N-[4-(methoxymethyl)phenyl]-7-(1-methylcyclopropyl)-7H-pyrrolo[2,3-d]pyrimidine-5-carboxamide], for which the “Remaining (%)” value is on record as 65%.

Turning to `COCc1ccc(NC(=O)c2c(OCC3CCCCO3)n(C3(C)CC3)c3ncnc(N)c23)cc1` (stereo not drawn) [Example 102, 4-amino-N-(4-(methoxymethyl)phenyl)-7-(1-methylcyclopropyl)-6-((tetrahydro-2H-pyran-2-yl)methoxy)-7H-pyrrolo[2,3-d]pyrimidine-5-carboxamide], the “Remaining (%)” value was 60%.

For `COCc1ccc(NC(=O)c2c(C#CC3CCN(C)CC3)n(C3(C)CC3)c3ncnc(N)c23)cc1` [Example 183, 4-amino-N-(4-(methoxymethyl)phenyl)-7-(1-methylcyclopropyl)-6-((1-methylpiperidin-4-yl)ethynyl)-7H-pyrrolo[2,3-d]pyrimidine-5-carboxamide], the “Remaining (%)” value worked out at 77%.

For the compound `COCc1ccc(NC(=O)c2c(C#Cc3cnn(C(C)C)c3)n(C3(C)CC3)c3ncnc(N)c23)cc1` [Example 144, 4-amino-6-((1-isopropyl-1H-pyrazol-4-yl)ethynyl)-N-(4-(methoxymethyl)phenyl)-7-(1-methylcyclopropyl)-7H-pyrrolo[2,3-d]pyrimidine-5-carboxamide], the “Remaining (%)” value is listed as 79%.

As to `COCc1ccc(NC(=O)c2c(C#CCN3CCCCC3)n(C3(C)CC3)c3ncnc(N)c23)cc1` [Example 105, 4-amino-N-[4-(methoxymethyl)phenyl]-7-(1-methylcyclopropyl)-6-(3-(piperidin-1-yl)prop-1-yn-1-yl)-7H-pyrrolo[2,3-d]pyrimidine-5-carboxamide], the “Remaining (%)” value came out at 52%.

As to `COCc1ccc(NC(=O)c2cn(C(C)(C)C)c3ncnc(N)c23)cc1F` [Example 30, 4-amino-7-(tert-butyl)-N-(3-fluoro-4-(methoxymethyl)phenyl)-7H-pyrrolo[2,3-d]pyrimidine-5-carboxamide], the “Remaining (%)” value was found to be 54%.

`CCC(O)CC#Cc1c(C(=O)Nc2ccc(COC)cc2)c2c(N)ncnc2n1C1(C)CC1` (stereo not drawn) [Example 157, 4-amino-6-(4-hydroxyhex-1-yn-1-yl)-N-(4-(methoxymethyl)phenyl)-7-(1-methylcyclopropyl)-7H-pyrrolo[2,3-d]pyrimidine-5-carboxamide]: the “Remaining (%)” value is 59%.

Turning to `COCc1ccc(NC(=O)c2c(C#CCC(C)(C)O)n(C3(C)CC3)c3ncnc(N)c23)cc1` [Example 86, 4-amino-6-(4-hydroxy-4-methylpent-1-yn-1-yl)-N-[4-(methoxymethyl)phenyl]-7-(1-methylcyclopropyl)-7H-pyrrolo[2,3-d]pyrimidine-5-carboxamide], the “Remaining (%)” value came out at 66%.

Turning to `COCc1ccc(NC(=O)c2c(OCC3CCCC3)n(C3(C)CC3)c3ncnc(N)c23)cc1` [Example 140, 4-amino-6-(cyclopentylmethoxy)-N-(4-(methoxymethyl)phenyl)-7-(1-methylcyclopropyl)-7H-pyrrolo[2,3-d] pyrimidine-5-carboxamide], the “Remaining (%)” value came out at 52%.

As to `COCc1ccc(NC(=O)c2cn(C3(C)CC3)c3ncnc(N)c23)cc1F` [Example 48, 4-amino-N-(3-fluoro-4-(methoxymethyl)phenyl)-7-(1-methylcyclopropyl)-7H-pyrrolo[2,3-d]pyrimidine-5-carboxamide], the “Remaining (%)” value is listed as 58%.

Turning to `Nc1ncnc2c1c(C(=O)Nc1ccc(Oc3ccccc3)cc1)cn2C1CCCC1` [Compound 2 of Comparative Examples, 4-amino-7-cyclopentyl-N-(4-phenoxyphenyl)-7H-pyrrolo[2,3-d]pyrimidine-5-carboxamide, reference compound], the “Remaining (%)” value is recorded as 0%.

On to `COCc1ccc(NC(=O)c2c(C#CCC3CCCCC3)n(C3(C)CC3)c3ncnc(N)c23)cc1` [Example 199, 4-amino-6-(3-cyclohexylprop-1-yn-1-yl)-N-(4-(methoxymethyl)phenyl)-7-(1-methylcyclopropyl)-7H-pyrrolo[2,3-d]pyrimidine-5-carboxamide], for which the “Remaining (%)” value worked out at 80%.

`COCc1ccc(NC(=O)c2c(C#Cc3cncc(C#N)c3)n(C3(C)CC3)c3ncnc(N)c23)cc1` [Example 195, 4-amino-6-((5-cyanopyridin-3-yl)ethynyl)-N-(4-(methoxymethyl)phenyl)-7-(1-methylcyclopropyl)-7H-pyrrolo[2,3-d]pyrimidine-5-carboxamide]: the “Remaining (%)” value turned out to be 70%.

Consider `COCc1ccc(NC(=O)c2c(OCC(C)OC)n(C3(C)CC3)c3ncnc(N)c23)cc1` (stereo not drawn) [Example 100, 4-amino-N-(4-(methoxymethyl)phenyl)-6-(2-methoxypropoxy)-7-(1-methylcyclopropyl)-7H-pyrrolo[2,3-d]pyrimidine-5-carboxamide], for which the “Remaining (%)” value stood at 76%.

On to `COCc1ccc(NC(=O)c2c(C#Cc3cnn(C)c3C)n(C3(C)CC3)c3ncnc(N)c23)cc1` [Example 182, 4-amino-6-((1,5-dimethyl-1H-pyrazol-4-yl)ethynyl)-N-(4-(methoxymethyl)phenyl)-7-(1-methylcyclopropy1)-7H-pyrrolo[2,3-d]pyrimidine-5-carboxamide], for which the “Remaining (%)” value was 61%.

For the compound `COCc1ccc(NC(=O)c2c(C#Cc3ccccc3OC)n(C3(C)CC3)c3ncnc(N)c23)cc1` [Example 113, 4-amino-N-(4-(methoxymethyl)phenyl)-6-((2-methoxyphenyl)ethynyl)-7-(1-methylcyclopropyl)-7H-pyrrolo[2,3-d]pyrimidine-5-carboxamide], the “Remaining (%)” value is on record as 79%.
